Patent US9493460B2, “Diimide compounds” (UCL BUSINESS PLC, priority 2013, dated 2016)

How the values were obtained:
telomerase = assay: TRAP-LIG cellular telomerase activity assay; assay type: cell-based, human; conditions: at the doses relevant to the IC50 values
Experimental: FIG. 1. Gel showing telomerase activity in MIA-Pa-Ca-2 cells treated with compound 3h after seven days of treatment. Lane 1; untreated cells, lanes 2-4; cells treated increasing concentrations of 3h. Telomerase activity was assessed using the TRAP-LIG assay as described in Materials and Methods. Compound concentrations are indicated. Neg; untreated cells, Pos; positive control. Neg: negative control with telomerase but no ligand.
Telomerase activity was determined using the TRAP-LIG assay, a modified telomere repeat amplification protocol that ensures that there is no carry-over of ligand into the second PCR step of the assay. Briefly, 1 μg of protein from untreated and treated cells were incubated with TS forward primer (0.1 μg of 5′-AAT CCG TCG AGC AGA GTT-3′) at 30° C. for 10 min to allow the initial elongation to take place. Elongated products were purified using the QIAquick nucleotide purification kit (Qiagen) according to the manufacturer's instructions. Eluted samples were freeze-dried and re-dissolved in PCR grade water. Re-dissolved PCR products were subjected to amplification in master mix containing ACX reverse primer (1 μM, 5′-GCG CGG [CTTACC]3 CTA ACC-3′), TS forward primer (0.1 μg), TRAP buffer, BSA (5 μg), 0.5 mM dNTPs, and 2U RedHot TAQ polymerase (ABgene, U.K.) for 35 cycles of 94° C. for 30 s, 61° C. for 1 min, and at 72° C. for 1 min. […]

Panc1 (pancreatic) cells = assay: SRB growth inhibition assay, 96 hr exposure, Panc1; assay type: cell-based, human; conditions: Homo sapiens, PANC-1, 96 h exposure
Experimental: (§1) Human cancer cell lines, MCF7 (breast), A549 (lung), Mia-PaCa2, PANC1 and HPAC (pancreatic), RCC4 and 786-0 renal, and the somatic human cell line WI-38 (lung fibroblast) were purchased from ATCC. Cell lines were maintained in appropriate medium supplemented with 10% foetal bovine serum (Invitrogen, UK), 2 mM L-glutamine (Invitrogen, Netherlands), and other components as specified by the suppliers. Cell lines were maintained at 37° C., 5% CO2 and routinely passaged. Drugs were dissolved in DMSO and filtered through 0.22 μm pore-size filter units before addition to cell line appropriate media. Cellular growth inhibition was measured using the sulforhodamine B (SRB) assay in 96 well plates as described previously.^1,2 Fifty percent inhibitory concentrations (IC50) were determined by taking the mean absorbance at 540 nm for each drug concentration expressed as a percentage of the absorbance of untreated control wells.
(§2) The anti-proliferative activity of the group of nine ND derivatives was assessed using the SRB assay following 96 h exposure to 2-fold serial dilutions of each compound (Table 2) in a panel of cancer cell lines together with a normal fibroblast line. […] In contrast the morpholine compounds all show sub-μM anti-proliferative activity in at least some of the cancer cell lines used and the two compounds 3d, 3h with n=3 —(CH2)n— linkers to the morpholine groups, show particularly potent activity in the Mia-PaCa2 and PANC1 pancreatic carcinoma and A549 lung adenocarcinoma cell lines (IC50 values of 10-20 nM).
(§3) Next a series of structural isomers were tested.

[1] = test system: 83 human genes involved in DNA damage signaling responses in Mia-PaCa2 cells; assay: qPCR array, DNA damage signaling response genes; assay type: cell-based; conditions: Mia-PaCa2 cells, data not shown
Experimental: Following compound exposure, cells were washed twice in PBS, harvested by trypsinisation, collected by centrifugation (300 g, 5 min, 4° C.) and re-suspended in RLT buffer (Qiagen). Samples were homogenised using QIAshredder spin columns and stored at −80° C. prior to RNA extraction. Three biological replicates were performed on separate days.
The expression of (i) 83 key human genes involved in telomere replication and maintenance, and (ii) 83 human genes involved in DNA damage signaling responses, was assessed using PCR arrays (SABiosciences). Total RNA was extracted from approximately 1×10^7 Mia-PaCa2 cells treated for 24 h with compound 3d, using the RNeasy kit (Qiagen) with on-column DNaseI treatment to remove residual genomic DNA. The quality of the harvested RNA was confirmed by nanodrop spectroscopy and by analysis with a Human RT^2 RNA QC PCR Array. First-strand cDNA synthesis was performed with the RT^2 first strand kit and qPCR was carried out using the RT^2 qPCR master mix (Qiagen) using 0.5 μg total RNA per array plate in a Stratagene MX-3000P instrument (Agilent, USA). Relative gene expression was determined by the ΔΔCT method using the web-based RT^2 Profiler™ PCR Array Data Analysis software (SABiosciences). Data were normalized to the geometric mean of five housekeeping genes (RPLP10, β-actin, B2M, GAPDH and HPRT1).
Various quadruplex-stabilising agents are known to induce pronounced DNA damage responses. We therefore next assessed the effect of 3d on the transcription of genes associated with DNA damage response and repair pathways. For these pathways the effect of a cytotoxic dosage of 3d (160 nM) on Mia-PaCa2 cells was also tested to assess the correlation between compound-induced DNA damage and cell killing. […] The latter two groups appeared to reflect a dynamic switch in the cellular response from low-level growth inhibition up to 40 nM of 3d to cytostatic then cytotoxic effects at 80 nM and 160 nM respectively.
Instead the response was dominated by genes with roles in growth arrest and more general stress responses.

[2] = test system: MiaPaCa2 (pancreatic) cells; assay: SRB growth inhibition assay, MiaPaCa2; assay type: cell-based, human
Experimental: as §1, §2
Dose-response curves were used to guide the choice of compound concentration and time-points for the array experiments (FIG. 2a). […] To explore this response continuum the transcriptional signature of cells exposed for 24 h to 20 nM, 40 nM, 80 nM concentrations of 3d, or solvent alone as control, was analysed as described in Materials and Methods.
as §3

A549 (lung) cells = assay: SRB growth inhibition assay, 96 hr exposure, A549; assay type: cell-based, human; conditions: Homo sapiens, A549, 96 h exposure
Experimental: as §1, §2, §3

Mia-PaCa2 cells = assay: Senescence β-galactosidase staining; assay type: cell-based, human; conditions: 7 days treatment
Experimental: FIG. 4. Micrographs showing the results of staining for evidence of cellular senescence in MiaPaCa2 cells using the β-galactosidase assay. Senescent cells are coloured blue in this procedure. Staining was performed after seven days treatments with (a) vehicle control, ×100 magnification, (b) 3.3 nM of compound 3d, ×200 magnification, (c) 6.6 nM of compound 3d, ×200 magnification, (d) 50 nM of compound 4, ×200 magnification, (e) plot of the percentage of senescent cells at the indicated concentrations of compounds 3d and 4, compared to the background senescence in this cell line (with vehicle control only). Cell counts were performed in triplicate and error bars represent estimated standard deviations.
Senescence detection and quantification experiments were carried out using the Senescence β-galactosidase staining kit (Cell Signalling Technology, MA, USA) according to the manufacturer's protocol. Briefly, 1×10^5 cells were seeded in 6-well plates in 2 ml of medium supplemented with the test compound and incubated for 24 h. Cells were washed (2 ml PBS), fixed (2% formaldehyde and 2% glutaraldehyde in PBS, 15 min, room temperature) and washed (2×2 ml PBS) before staining overnight. Senescent cells, detected by their blue pigmentation, were counted using a light microscope.
CDKN1A encodes the cyclin-dependent kinase p21WAF1 that induces replicative senescence, which is a well-studied consequence of telomerase inhibition and telomere maintenance disruption. […] Compounds 3b and 3d behaved in a similar manner to each other, with concentrations of 3-4 nM being sufficient to result in ˜50-60% of cells becoming senescent after this time-course.

[3] = test system: human telomeric G-quadruplex DNA (F21T); assay: FRET melting assay, human telomeric quadruplex; assay type: binding; conditions: FRET melting
Description: The ability of the naphthalene diimide compounds to stabilize DNA sequences was investigated using a fluorescence resonance energy transfer (FRET) assay modified to be used as a high-throughput screen in a 96-well format. Several quadruplex sequences were studied (the human telomeric G-quadruplex DNA sequence 5′-FAM-d(GGG[TTAGGG]3)-TAMRA-3′ and the duplex sequence 5′-FAM-dTATAGCTATA-HEG-TATAGCTATA-TAMRA-3′ (HEG linker: [(—CH2—CH2—O—)6])), as well as two overlapping sequences from the HSP90 promoter region (HSP90a and HSP90b):
The labelled oligonucleotides have attached to them the donor fluorophore FAM: 6-carboxyfluorescein and the acceptor fluorophore TAMRA: 6-carboxytetramethylrhodamine. The FRET probe sequences were diluted from stock to the correct concentration (400 nM) in a 60 mM potassium cacodylate buffer (pH 7.4) and then annealed by heating to 85° C. for 10 min, followed by cooling to room temperature in the heating block. The compound was stored as a 10 mM stock solution in DMSO; final solutions (at 2×concentration) were prepared using 10 mM HCl in the initial 1:10 dilution, after which 60 mM potassium cacodylate buffer (pH 7.4) was used in all subsequent steps. The maximum HCl concentration in the reaction volume (at a ligand concentration of 20 μM) is thus 200 μM, well within the range of the buffer used. Relevant controls were also performed to check for interference with the assay. 96-Well plates (MJ Research, Waltham, Mass.) were prepared by aliquoting 50 μl of the annealed DNA into each well, followed by 50 μl of the compound solutions. Measurements were made on a DNA Engine Opticon (MJ Research) with excitation at 450-495 nm and detection at 515-545 nm. Fluorescence readings were taken at intervals of 0.5° C. in the range 30-100° C., with a constant temperature being maintained for 30 s prior to each reading to ensure a stable value. Final analysis of the data was carried out using a script written in the program Origin 7.0 (OriginLab Corp., Northampton, Mass.). The advanced curve-fitting function in Origin 7.0 was used for calculation of ΔTm values. All determinations were performed in triplicate or better. Esds in ΔTm are ±0.1° C.
The ability of compounds 3a-h to stabilize a human telomeric quadruplex was assessed by a high-throughput FRET (Fluorescence Resonance Energy Transfer) melting technique. […] None of the furan tetrahydrofuran, pyranose or acyclic ether compounds has any effect on quadruplex or duplex stability.
The T-loop sequence represents duplex DNA.

786-O (renal) cells = assay: SRB growth inhibition assay, 96 hr exposure, 786-O; assay type: cell-based, human; conditions: versus other lines of the panel
Experimental: as §1, §2, §3

[4] = test system: panel of cancer cell lines; assay: SRB assay, panel of cancer cell lines and normal fibroblast line; assay type: cell-based, human; conditions: Homo sapiens, Fibroblast, 96 h exposure, read-out: IC50 values across the cell line panel
Experimental: as §1, §2

SMILES: CN1CCN(CCNc2cc3c4c(c(NCCN5CCN(C)CC5)cc5c4c2C(=O)N(CCCN2CCOCC2)C5=O)C(=O)N(CCCN2CCOCC2)C3=O)CC1 [Compound 3h, 4,9-bis((2-(4-methylpiperazin-1-yl)ethyl)amino)-2,7-bis(3-morpholinopropyl)benzo[lmn][3,8]phenanthroline-1,3,6,8(2H,7H)-tetraone]
- telomerase activity inhibition (telomerase): not inhibitors of telomerase activity
- IC50 (Panc1 (pancreatic) cells): 10 to 20 nM
- induction of γ-H2AX [1]: do not appear to induce these particular changes
- selectivity for Mia-PaCa2 compared to the normal fibroblast line WI-38 [2]: ~200 fold
- IC50 ([2]; Homo sapiens, MIA PaCa-2, SRB assay, 96 h exposure, read-out: IC50 Mia-PaCa2): 10 to 20 nM
- IC50 (A549 (lung) cells): 10 to 20 nM

SMILES: CN1CCN(CCCNc2cc3c4c(c(NCCCN5CCN(C)CC5)cc5c4c2C(=O)N(CCCN2CCN(C)CC2)C5=O)C(=O)N(CCCN2CCN(C)CC2)C3=O)CC1 [Compound 4, reference compound]
- induction of senescence (in words) (Mia-PaCa2 cells): strong induction of senescence

SMILES: CN1CCN(CCCNc2cc3c4c(c(NCCCN5CCN(C)CC5)cc5c4c2C(=O)N(CC2CCOCC2)C5=O)C(=O)N(CC2CCOCC2)C3=O)CC1 [Compound 3c, 4,9-bis((3-(4-methylpiperazin-1-yl)propyl)amino)-2,7-bis((tetrahydro-2H-pyran-4-yl)methyl)benzo[lmn][3,8]phenanthroline-1,3,6,8(2H,7H)-tetraone]
- telomeric quadruplex stabilization (in words) [3]: low level of quadruplex binding
- selectivity for the renal carcinoma cell line 786-0 (786-O (renal) cells): up to 10 fold
- IC50 [4]: 1000 to 8000 nM
